{
  "source": "patent US20220312815A1",
  "about": "“NATURAL FOOD ANTIOXIDANT AND METHOD FOR PREPARING THE SAME” (Lanzhou Universty, priority 2019, published 2022)",
  "key": {"[1]": {"assay": "Antioxidative activity of DPPH (DPPH free radical scavenging)", "assay_type": "biochemical", "conditions": "absorbance at 519 nm after 30 minutes in dark at room temperature; mean of 3 repeats", "protocol": "Antioxidative activity of DPPH: DPPH belonged to a synthetic stable free radical, which has characteristic absorption in a visible light region. A method for measuring DPPH was simple and fast and had good reproducibility. Flavonoid and a sample of flavonoid and polysaccharide mixed that was prepared in Embodiment 1 were all prepared with 70% ethyl alcohol. The polysaccharide sample, positive control vitamin C (Vc) and vitamin E (Ve) were prepared with distilled water. 1.280 mg/mL stock solution was prepared with each substance to be tested and diluted for 7 concentration gradients for later use. 75 μL of a solution in each concentration to be tested was precisely added to a 96-ferment plate, and then added with 150 μL of 0.1 m MDPPH 70% ethyl alcohol solution. A blank control was set for each reaction hole of each concentration. The blank control was 75 μL of the solution to be tested and 150 μL of 70% ethyl alcohol. The total volume of reaction was 225 μL. The solution was shook well, and kept standing in dark at room temperature for 30 minutes. […] A decrease in absorbency indicated an increase in free radical scavenging activity. Each sample was repeated 3 times for each concentration. Scavenging rate=[A0-(A1-A2)]/A0 A0 was a light absorption value of the DPPH solution plus a solution to be tested at a concentration of zero. […]"}, "[2]": {"assay": "Antioxidative activity of superoxide anions (PMS-NADH-NBT system method)", "assay_type": "biochemical", "conditions": "absorbance at 560 nm after 5 min, pH7.4 phosphate buffer", "excerpt": "The determination of antioxidative activity of superoxide anions: O2-• was a free radicals with a longer life in a body. In free radical chain reaction. O2-• acted as an initiator to promote the generation of other free radicals, causing further harm to the body, which was closely related to many diseases. Therefore, the ability of the sample to remove O2-• was usually used as an important indicator of the activity of an antioxidative substance. Flavonoid and a sample of flavonoid and polysaccharide mixed that was prepared in Embodiment 1 were all prepared with 70% ethyl alcohol. A polysaccharide sample, positive control vitamin C (Vc) and vitamin E (Ve) were prepared with distilled water. 1.280 mg/mL stock solution was prepared with each substance to be tested and then diluted for 7 concentration gradients for later use. A PMS-NADH-NBT system method was used to determine the activity of scavenging superoxide anions (O2-•). […] When being added to the PMS-NADH-NBT system, an antioxidative substance inhibited the reaction of O2-• with NBT. By measuring absorbency, the ability to scavenge free radicals of antioxidant could be calculated. […] A light absorption value of the solution was measured at 560 nm after 5 min. […]"}},
  "note": "Marks after values point to notes of the source that are not given here.",
  "data": [
    {"smiles": "O=C1O[C@H]([C@@H](O)CO)C(O)=C1O", "note": "[Vc, vitamin C]", "values": [
      {"measurement": "IC50 of DPPH", "setting": "[1]", "result": "2.95 ± 0.39^a μg/mL"},
      {"measurement": "IC50 of O2-·", "setting": "[2]", "result": "208.83 ± 10.41^d μg/mL"}
    ]},
    {"smiles": "Cc1c(C)c2c(c(C)c1O)CC[C@@](C)(CCC[C@H](C)CCC[C@H](C)CCCC(C)C)O2", "note": "[Ve, vitamin E]", "values": [
      {"measurement": "IC50 of DPPH", "setting": "[1]", "result": "5.33 ± 0.45^a μg/mL"},
      {"measurement": "IC50 of O2-·", "setting": "[2]", "result": "353.33 ± 4.16^e μg/mL"}
    ]}
  ]
}
